Test results as given in patent US12011444B2, “N-substituted indole derivatives as PGE2 receptor modulators” (Idorsia Pharmaceuticals Ltd, priority 2015, dated 2024).

Tests used:
PTGER2 (EP2) = PTGER2 (EP2) (Homo sapiens (Human), UniProt P43116); experiment: hEP2 b-arrestin assay (PathHunter HEK 293 PTGER2 b-arrestin cells); assay type: cell-based; conditions: antagonistic activity on hEP2; mean where measured multiple times
Outline: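 Readout is β-galactosidase complementation luminescence, expressed as percent of DMSO control (duplicates). PathHunter HEK293 EP2/β-arrestin 2 cells, grown 24 h, received compound for 15 min at 37 °C before a 120 min challenge with PGE2 at 5 μM final, followed by 1 h detection at room temperature.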

PTRGER4 (EP4) = PTRGER4 (EP4) (Homo sapiens (Human), UniProt P35408); experiment: hEP4 b-arrestin assay (PathHunter HEK 293 PTGER4 b-arrestin cells); assay type: cell-based; conditions: antagonistic activity on hEP4; mean where measured multiple times
Outline: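 Antagonist mode: compound is given 15 min at 37 °C, then 20 nM (final) PGE2 for 120 min, in HEK293 cells stably expressing EP4 fused to ProLink and β-arrestin 2 fused to EA. Recruitment read as β-gal luminescence after 1 h reagent at room temperature, as percent of DMSO control.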

Chain of PTGER2 (EP2) (P43116 whole entry): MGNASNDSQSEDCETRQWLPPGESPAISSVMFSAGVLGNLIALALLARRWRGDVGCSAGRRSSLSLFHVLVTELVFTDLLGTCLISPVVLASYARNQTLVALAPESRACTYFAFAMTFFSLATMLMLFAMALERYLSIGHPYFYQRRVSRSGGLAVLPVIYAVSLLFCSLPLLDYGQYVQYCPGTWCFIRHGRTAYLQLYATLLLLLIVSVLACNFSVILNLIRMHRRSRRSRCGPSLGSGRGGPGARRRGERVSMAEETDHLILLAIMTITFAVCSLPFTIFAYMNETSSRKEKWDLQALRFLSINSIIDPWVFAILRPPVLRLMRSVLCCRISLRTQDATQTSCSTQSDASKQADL
Chain of PTRGER4 (EP4) (P35408 whole entry, looked up, the tested form may be a part): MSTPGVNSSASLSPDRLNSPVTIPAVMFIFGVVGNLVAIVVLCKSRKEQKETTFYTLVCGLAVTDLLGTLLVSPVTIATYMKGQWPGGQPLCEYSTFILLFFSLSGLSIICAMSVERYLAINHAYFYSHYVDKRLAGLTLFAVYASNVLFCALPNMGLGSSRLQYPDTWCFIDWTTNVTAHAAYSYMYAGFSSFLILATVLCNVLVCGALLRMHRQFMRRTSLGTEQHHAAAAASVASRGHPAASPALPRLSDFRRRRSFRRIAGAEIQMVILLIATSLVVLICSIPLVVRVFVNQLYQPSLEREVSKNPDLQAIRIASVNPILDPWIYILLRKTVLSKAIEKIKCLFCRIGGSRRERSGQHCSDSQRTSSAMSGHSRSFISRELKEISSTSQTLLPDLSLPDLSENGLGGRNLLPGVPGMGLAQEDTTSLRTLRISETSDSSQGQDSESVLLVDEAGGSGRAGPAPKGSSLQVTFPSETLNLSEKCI

IC50 (PTGER2 (EP2)) [nM] | IC50 (PTRGER4 (EP4)) [nM] | Structure (SMILES)
2 | 897 | CCNc1cc(-c2cc(NCCn3c(C)cc4cccc(Cl)c43)ncn2)ccc1C(=O)O [compound 137, 4-{6-[2-(7-Chloro-2-methyl-indol-1-yl)-ethylamino]-pyrimidin-4-yl}-2-ethylamino-benzoic acid]
7 | 567 | CCOc1cc(-c2cc(NCCn3c(C#N)cc4ccccc43)ncn2)ccc1C(=O)O [compound 138, 4-{6-[2-(2-Cyano-indol-1-yl)-ethylamino]-pyrimidin-4-yl}-2-ethoxy-benzoic acid]
28 | 939 | COc1cccc2c1cc(C)n2CCNc1cc(-c2ccc(S(N)(=O)=O)c(C)c2)ncn1 [compound 139, 4-{6-[2-(4-Methoxy-2-methyl-indol-1-yl)-ethylamino]-pyrimidin-4-yl}-2-methyl-benzenesulfonamide]
11 | 476 | Cc1cccc2c1cc(C)n2CCNc1cc(-c2ccc(C(=O)O)c(CC(C)C)c2)ncn1 [compound 140, 4-{6-[2-(2,4-Dimethyl-indol-1-yl)-ethylamino]-pyrimidin-4-yl}-2-isobutyl-benzoic acid]
20 | 992 | CSc1cc(-c2cc(NCCn3c(C)cc4c(Cl)ccc(Cl)c43)ncn2)cc(F)c1C(=O)O [compound 141, 4-{6-[2-(4,7-Dichloro-2-methyl-indol-1-yl)-ethylamino]-pyrimidin-4-yl}-2-fluoro-6-methylsulfanyl-benzoic acid]
16 | 588 | CSc1cc(-c2cc(NCCn3c(C)cc4c(Cl)ccc(Cl)c43)ncn2)cc(Cl)c1C(=O)O [compound 142, 2-Chloro-4-{6-[2-(4,7-dichloro-2-methyl-indol-1-yl)-ethylamino]-pyrimidin-4-yl}-6-methylsulfanyl-benzoic acid]
5 | 658 | CCCc1cc(-c2cc(NCCn3c(C)cc4c(F)ccc(Cl)c43)ncn2)ccc1C(=O)O [compound 143, 4-{6-[2-(7-Chloro-4-fluoro-2-methyl-indol-1-yl)-ethylamino]-pyrimidin-4-yl}-2-propyl-benzoic acid]
3 | 658 | CCCc1cc(-c2cc(NCCn3c(C)cc4c(F)ccc(F)c43)ncn2)ccc1C(=O)O [compound 144, 4-{6-[2-(4,7-Difluoro-2-methyl-indol-1-yl)-ethylamino]-pyrimidin-4-yl}-2-propyl-benzoic acid]
8 | 302 | CCCc1cc(-c2cc(NCCn3c(C)cc4cc(F)cc(F)c43)ncn2)ccc1C(=O)O [compound 145, 4-{6-[2-(5,7-Difluoro-2-methyl-indol-1-yl)-ethylamino]-pyrimidin-4-yl}-2-propyl-benzoic acid]
8 | 334 | CCSc1cc(-c2cc(NCCn3c(C)cc4c(C)ccc(Cl)c43)ncn2)ccc1C(=O)O [compound 146, 4-{6-[2-(7-Chloro-2,4-dimethyl-indol-1-yl)-ethylamino]-pyrimidin-4-yl}-2-ethylsulfanyl-benzoic acid]
16 | 109 | CCCc1cc(-c2cc(NCCn3c(C)cc4c(C)ccc(F)c43)ncn2)ccc1C(=O)O [compound 147, 4-{6-[2-(7-Fluoro-2,4-dimethyl-indol-1-yl)-ethylamino]-pyrimidin-4-yl}-2-propyl-benzoic acid]
7 | 943 | Cc1cc2cccc(F)c2n1CCNc1cc(-c2ccc(C(=O)O)c(CC(C)C)c2)ncn1 [compound 148, 4-{6-[2-(7-Fluoro-2-methyl-indol-1-yl)-ethylamino]-pyrimidin-4-yl}-2-isobutyl-benzoic acid]
10 | 605 | CCSc1cc(-c2cc(NCCn3c(C)cc4c(Cl)ccc(Cl)c43)ncn2)ccc1C(=O)O [compound 149, 4-{6-[2-(4,7-Dichloro-2-methyl-indol-1-yl)-ethylamino]-pyrimidin-4-yl}-2-ethylsulfanyl-benzoic acid]
54 | 458 | CSc1cc(-c2cc(NCCn3c(C)cc4c(C)ccc(Cl)c43)ncn2)cc(Cl)c1C(=O)O [compound 150]
8 | 808 | CCOc1cc(-c2cc(NCCn3c(C)cc4c(Cl)ccc(Cl)c43)ncn2)ccc1C(=O)O [compound 151, 4-{6-[2-(4,7-Dichloro-2-methyl-indol-1-yl)-ethylamino]-pyrimidin-4-yl}-2-ethoxy-benzoic acid]
3 | 786 | CCOc1cc(-c2cc(NCCn3c(C)cc4c(F)ccc(Cl)c43)ncn2)ccc1C(=O)O [compound 152, 4-{6-[2-(7-Chloro-4-fluoro-2-methyl-indol-1-yl)-ethylamino]-pyrimidin-4-yl}-2-ethoxy-benzoic acid]
202 | 739 | CCOc1cc(-c2cc(NCCn3c(C)cc4cc(Cl)cc(Cl)c43)ncn2)ccc1C(=O)O [compound 153]
1 | 628 | CCOc1cc(-c2cc(NCCn3c(C)cc4c(F)ccc(F)c43)ncn2)ccc1C(=O)O [compound 154, 4-{6-[2-(4,7-Difluoro-2-methyl-indol-1-yl)-ethylamino]-pyrimidin-4-yl}-2-ethoxy-benzoic acid]
55 | 251 | COc1ccc(Cl)c2c1cc(C)n2CCNc1cc(-c2cc(C)c(C(=O)O)c(Cl)c2)ncn1 [compound 155]

IC50 (PTGER2 (EP2)) [nM] | IC50 (PTRGER4 (EP4)) [nM] | Structure (SMILES)
78 | 93 | COc1ccc(F)c2c1cc(C)n2CCNc1cc(-c2cc(C)c(C(=O)O)c(Cl)c2)ncn1 [compound 156]
27 | 590 | CCOc1cc(-c2cc(NCCn3c(C)cc4c(C)ccc(Cl)c43)ncn2)ccc1C(=O)O [compound 157, 4-{6-[2-(7-Chloro-2,4-dimethyl-indol-1-yl)-ethylamino]-pyrimidin-4-yl}-2-ethoxy-benzoic acid]
4 | 75 | CCOc1cc(-c2cc(NCCn3c(C)cc4c(OC)ccc(F)c43)ncn2)ccc1CO [compound 159, (2-Ethoxy-4-{6-[2-(7-fluoro-4-methoxy-2-methyl-indol-1-yl)-ethylamino]-pyrimidin-4-yl}-phenyl)-methanol]
48 | 204 | CCc1cc(-c2cc(NCCn3c(C)cc4c(OC)cccc43)ncn2)cc(Cl)c1C(=O)O [compound 160, 2-Chloro-6-ethyl-4-{6-[2-(4-methoxy-2-methyl-indol-1-yl)-ethylamino]-pyrimidin-4-yl}-benzoic acid]
396 | 993 | COc1ccc(F)c2c1cc(C)n2CCNc1cc(-c2ccc(S(C)(=O)=O)c(F)c2)ncn1 [compound 161]
3 | 4 | CCOc1cc(-c2cc(NCCn3c(C)cc4c(C)c(F)cc(F)c43)ncn2)sc1C(=O)O [compound 162, 5-{6-[2-(5,7-Difluoro-2,4-dimethyl-indol-1-yl)-ethylamino]-pyrimidin-4-yl}-3-ethoxy-thiophene-2-carboxylic acid]
111 | 842 | CCNc1cc(-c2cc(NCCn3c(C)cc4cccc(C#N)c43)ncn2)ccc1C(=O)O [compound 163]
113 | 520 | Cc1ccc(F)c2c1cc(C)n2CCNc1cc(-c2ccc3[nH]cnc3c2)ncn1 [compound 164]
19 | 230 | CC(C)Cc1cc(-c2cc(NCCn3c(C#N)cc4ccccc43)ncn2)ccc1C(=O)O [compound 165, 4-{6-[2-(2-Cyano-indol-1-yl)-ethylamino]-pyrimidin-4-yl}-2-isobutyl-benzoic acid]
131 | 733 | Cc1ccc(F)c2c1cc(C)n2CCNc1cc(-c2cc(F)c(S(N)(=O)=O)c(F)c2)ncn1 [compound 166]
6 | 333 | CCNc1cc(-c2cc(NCCn3c(C)cc4cc(F)cc(F)c43)ncn2)ccc1C(=O)O [compound 167, 4-{6-[2-(5,7-Difluoro-2-methyl-indol-1-yl)-ethylamino]-pyrimidin-4-yl}-2-ethylamino-benzoic acid]
146 | 995 | Cc1ccc(F)c2c1cc(C)n2CCNc1cc(-c2ccc(C(=O)NCCO)cc2)ncn1 [compound 168]
8 | 543 | Cc1cc2c(Cl)cccc2n1CCNc1cc(-c2ccc(C(=O)O)c(C3CC3)c2)ncn1 [compound 169]
1 | 350 | CCNc1cc(-c2cc(NCCn3c(C)cc4ccc(OC)cc43)ncn2)ccc1C(=O)O [compound 170, 2-Ethylamino-4-{6-[2-(6-methoxy-2-methyl-indol-1-yl)-ethylamino]-pyrimidin-4-yl}-benzoic acid]
112 | 231 | COc1ccc(F)c2c1cc(C)n2CCNc1cc(-c2ccc(S(N)(=O)=O)c(C)c2)ncn1 [compound 171]
54 | 536 | COc1ccc(F)c2c1cc(C)n2CCNc1cc(-c2ccc(S(N)(=O)=O)c(Cl)c2)ncn1 [compound 172]
5 | 894 | Cc1cc2c(F)ccc(F)c2n1CCNc1cc(-c2ccc(C(=O)O)c(C3CC3)c2)ncn1 [compound 173, 2-Cyclopropyl-4-{6-[2-(4,7-difluoro-2-methyl-indol-1-yl)-ethylamino]-pyrimidin-4-yl}-benzoic acid]
27 | 405 | Cc1ccc(F)c2c1cc(C)n2CCNc1cc(-c2ccc(C(=O)O)c(C3CC3)c2)ncn1 [compound 174, 2-Cyclopropyl-4-{6-[2-(7-fluoro-2,4-dimethyl-indol-1-yl)-ethylamino]-pyrimidin-4-yl}-benzoic acid]
6 | 529 | COc1cccc2c1cc(C)n2CCNc1cc(-c2ccc(C(=O)O)c(C3CC3)c2)ncn1 [compound 175, 2-Cyclopropyl-4-{6-[2-(4-methoxy-2-methyl-indol-1-yl)-ethylamino]-pyrimidin-4-yl}-benzoic acid]
